Assays:
athymic nude mice = conditions: mouse, in vivo; for therapeutic index: female, athymic nude (NCRNU), 5 days; for MTD / tolerability, acute MTD study: po
Experimental: . Evaluation of the acute and chronic maximum tolerated dose (MTD) for Compound 04 and Compound 01 was carried out by oral gavage administration of each compound to athymic nude mice according to the following procedure.
Five weeks-old female athymic nude mice (NCRNU) were purchased from Taconic Biosciences, Rensselaer NY, and acclimated for one week. Mice were approximately […] when enrolled in the study. All compounds were resuspended in 1-methyl-2-pyrrolidinone (Sigma, 494496) (10% v/v) plus 20% Solutol (Sigma 42966) in water (90% v/v). Mice were randomized according to the baseline weight (Day 1) at the beginning of the acute and chronic MTD studies.
For the acute MTD study, mice were administered three escalating doses of each compound every other day (two animals per group). Mice were dosed by oral gavage with one hundred milligrams per kilogram on day one, five hundred milligrams per kilogram on day three, and one thousand milligrams per kilogram on day five. Body weight was measured every day, and the percent body weight change was calculated.
For the chronic MTD study, three groups, with three mice per group were dosed daily for five consecutive days, at one hundred, three hundred, or one thousand milligrams per kilogram of Compound 04 or Compound 01, and observed for five consecutive days post-dosing during recovery. Body weight was measured, and clinical observations were recorded daily for ten consecutive days. A vehicle only treatment group of three mice was included to evaluate potential toxicity of the vehicle. The percent body weight change for each day was calculated based on Day 1 measurements.

[1] = tested on: TGF-β1-induced SMAD signaling pathway; test: RD SMAD reporter (RDSR) assay; assay type: cell-based; conditions: Homo sapiens; 200 pg/ml rhTGF-beta1, 24 h
Source text: TGF-beta (also referred to as TGF-β1) is a multifunctional, highly conserved cytokine with many key functions in development, cell growth and apoptosis, and plays a key role in the tissue repair response and functions as a potent immune modulator. TGF-β signaling is triggered when the activated TGF-β homodimer binds to the TGF-β receptor 2, which in turn leads to the recruitment and phosphorylation of TGF-β receptor 1 (ALK5). Activated TGF-β receptor 1 phosphorylates the signal transduction molecules SMAD2 and SMAD3. These bind to common mediator SMAD4 and translocate to the nucleus where they bind to short conserved DNA sequences called the SMAD binding element and induce the transcription of various target genes.
A stable cellular reporter, the RD SMAD reporter (RDSR), was generated to test the ability of certain compounds disclosed herein to inhibit the canonical TGF-β1-induced SMAD signaling pathway in a cellular context. The RD SMAD reporter (RDSR) cell line was generated by stably integrating the SMAD cellular reporter plasmid (Promega, pGL4.48[luc2P/SBE/Hygro]) into the human rhabdomyosarcoma cell line RD (ATCC, CCL-136). Once SMAD signaling was triggered with, for example, the addition of TGF-beta1, receptor-activated SMADs bind the SMAD binding elements (SBEs) leading to the expression of intracellular luciferase.
The rhabdomyosarcoma line RD (ATCC, CCL-136) was transfected with a SMAD reporter vector (Promega, E3671) and a polyclonal stable cell line was selected using hygromycin B. The transfected vector contained three copies of a Smad-binding element (SBE) that drives transcription of the luciferase reporter gene luc2P (Photinus pyralis). luc2P is a synthetically-derived luciferase sequence with humanized codon optimization that is designed for high expression and reduced anomalous transcription. The luc2P gene contains hPEST, a protein destabilization sequence, which allows luc2P protein levels to respond more quickly than those of luc2 to induction of transcription. The intracellular luciferase is quantified by the addition of equal volume (100 μl) of ONE-GLO substrate (Promega, E6120) and read within ten minutes on the Envision plate reader. The stable RDSR cell line was tested by evaluating the response to human TGF-beta1 (R&D Systems, 7754-BH-005) as well as myostatin (R&D Systems, 788-G8-010/CF) in a concentration-dependent manner after twenty-four hours of stimulation. […] For compound evaluation, the tool compounds (vactosertib and PF-06952229 (a TGFβR1 inhibitor available from MedChem Express HY-136244) were included as positive controls) or test compounds were incubated with cells for one hour at 37° C. then stimulated with 200 pg/ml rhTGF-beta1 for twenty-four hours. The activity of the reporter was determined with the addition of ONE-GLO (Promega) substrate, and luminescence counts were collected on the Envision plate reader (Perkin Elmer). The IC50 or EC50 was calculated using nonlinear regression curve fitting with graph pad prism software.
A comparative RDSR analysis was performed using IC50 values for selected compounds and standards obtained using the RDSR assay protocol described in Example 3.
The tool compounds vactosertib (an ALK5 inhibitor sourced from MedChem Express, HY-19928) and PF-06952229 (a TGFβR1 inhibitor) were included in the study as comparator compounds. Selected example compounds or comparator compounds were incubated with cells for one hour at 37° C. then stimulated with 200 pg/ml rhTGF-beta1 for twenty-four hours. The activity of the reporter was determined by adding ONE-GLO (Promega) substrate, and collecting luminescence counts on the Envision plate reader (Perkin Elmer).
Each of the example compounds and comparator compounds were tested at drug concentrations of from 20 micromolar to 1 nanomolar, and the IC50 value for each was calculated using Graph Pad Prism software. DMSO was used as a negative control and all wells contained normalized DMSO concentrations. […]

`Clc1cccc2c(Nc3ccnc(Nc4cccc(N5CCOCC5)c4)c3)cnnc12` [Compound 04, N4-(8-chlorocinnolin-4-yl)-N2-[3-(morpholin-4-yl)phenyl]pyridine-2,4-diamine] was tested, and the therapeutic index (athymic nude mice) was 6 ×, the MTD (athymic nude mice) was “three hundred” and the “tolerability, acute MTD study” value (athymic nude mice) was “well tolerated in mice at one thousand milligrams per kilogram with single dose administration”. It also gave an EC50 [1] of less than 50 nM.

For `Cc1nn(CC(F)(F)F)cc1Nc1cc(Nc2cnnc3c(C)cccc23)ccn1` [Compound 01, N2-[3-methyl-1-(2,2,2-trifluoroethyl)-1H-pyrazol-4-yl]-N4-(8-methylcinnolin-4-yl)pyridine-2,4-diamine], the therapeutic index (athymic nude mice) was “less than 4 ×”, the MTD (athymic nude mice) was “less than three hundred” and the “tolerability, acute MTD study” value (athymic nude mice) was “well tolerated in mice at one thousand milligrams per kilogram with single dose administration”. For the same compound, the EC50 [1] was less than 50 nM.

With `Cc1cccc2c(Nc3ccnc(Nc4ccc(N5CCOCC5)cc4)c3)cnnc12` [Compound 05, N4-(8-methylcinnolin-4-yl)-N2-[4-(morpholin-4-yl)phenyl]pyridine-2,4-diamine] the EC50 [1] was less than 50 nM.

Source: patent US20240197729A1, “ALK-5 Inhibitors and Uses Thereof” (Sumitomo Pharma Oncology, Inc., priority 2021, published 2024)
